How the values were obtained:
[1] = target: T1, porcine pancreatic elastase (PPE) (Sus scrofa, UniProt P00772); test: Specificity assay, porcine pancreatic elastase; assay type: biochemical; details: 2 hr pre-incubation at RT
T1 construct: purchased Sigma
Procedure: (§1) The specificities of compounds of the present invention were determined against a variety of serine proteases: human sputum elastase (HS), porcine pancreatic elastase (PPE) and human pancreatic chymotrypsin and one cysteine protease: human liver cathepsin B. In all cases a 96-well plate format protocol using calorimetric p-nitroaniline (pNA) substrate specific for each enzyme was used as described previously (Patent WO 00/09543) with some modifications to the serine protease assays. All enzymes were purchased from Sigma while the substrates were from Bachem.
(§2) Each assay included a 2 hr enzyme-inhibitor pre-incubation at RT followed by addition of substrate and hydrolysis to ˜30% conversion as measured on a Spectramax Pro microplate reader. Compound concentrations varied from 100 to 0.4 μM depending on their potency. […]
(§3) The percentage of inhibition was calculated using the formula: [1-((UVinh−UVblank)/(UVctl−UVblank))]×100 […]

[2] = target: T2, human sputum elastase (HS) (Homo sapiens, UniProt P08246); test: Specificity assay, human sputum elastase; assay type: biochemical; details: 2 hr pre-incubation at RT
T2 construct: purchased Sigma
T2 sequence (P08246 30-267): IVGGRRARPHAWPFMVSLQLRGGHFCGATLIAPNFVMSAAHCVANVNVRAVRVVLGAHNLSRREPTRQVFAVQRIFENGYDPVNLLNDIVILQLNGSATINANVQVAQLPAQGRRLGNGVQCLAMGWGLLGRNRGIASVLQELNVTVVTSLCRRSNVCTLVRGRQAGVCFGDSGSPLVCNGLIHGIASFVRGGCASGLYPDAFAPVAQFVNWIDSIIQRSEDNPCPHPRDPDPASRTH
Procedure: as §1, §2, §3

T1 sequence (P00772 27-266): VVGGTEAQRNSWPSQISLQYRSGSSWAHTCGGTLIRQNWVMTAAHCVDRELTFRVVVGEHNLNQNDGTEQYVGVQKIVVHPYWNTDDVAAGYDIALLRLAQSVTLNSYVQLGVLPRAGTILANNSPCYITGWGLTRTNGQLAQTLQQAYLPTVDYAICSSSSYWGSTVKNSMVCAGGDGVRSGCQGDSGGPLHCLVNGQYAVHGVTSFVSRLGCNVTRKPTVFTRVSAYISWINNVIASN

C=CC1C[C@]1(NC(=O)[C@@H]1C[C@@H](OC(=O)Nc2ccccc2-c2ccccc2)CN1C(=O)[C@@H](NC(=O)OC(C)(C)C)C(C)(C)C)C(=O)NS(=O)(=O)C1CC1 (stereo partly drawn) [Compound 8, BocNH-P3(t-BuGly)-P2(Hyp(O—CO(NH-biphen-2-yl)))-P1(1R,2S VinylAcca)—CONHSO2Cyclopropane]
IC50 [1]: > 100 µM | IC50 [2]: > 100 µM

— US7041698B2, “Hepatitis C virus inhibitors” (Bristol-Myers Squibb Company, priority 2002, dated 2006)
